We go through 22 molecules from ChEMBL document CHEMBL4425173, “Synthesis, biological evaluation and molecular modeling studies of psammaplin A and its analogs as potent histone deacetylases inhibitors and cytotoxic agents” (Bioorg Med Chem Lett, 2016).

Active and inactive are the calls of the source. The calls are words filed in the database; no cut-off is given here. Bounds are passed on as bounds.

For assay [1], the system named is PC-3. Put plainly: Cytotoxicity against human PC3 cells assessed as reduction in cell growth inhibition after 96 hrs by MTT assay. The format is functional. The following applies: PC-3, 96 h.
For assay [2], the system named is A549. Put plainly: Cytotoxicity against human A549 cells assessed as reduction in cell growth inhibition after 96 hrs by MTT assay. The following applies: A549, 96 h. The format is functional.
Assay [3] has as its system HL-60. Briefly: Cytotoxicity against human HL60 cells assessed as reduction in cell growth inhibition after 72 hrs by trypan blue-staining based hemocytometric analysis. The format is functional. The following applies: HL-60, 72 h.
For assay [4], the target named is Histone deacetylase. Put plainly: Inhibition of HDAC in human HeLa cells using Fluor deLys as substrate assessed as deacetylation of substrate by fluorescence assay. The assay is classed as cell-based.
Assay [5] has as its system MCF7. Put plainly: Cytotoxicity against human MCF7 cells assessed as reduction in cell growth inhibition after 96 hrs by MTT assay. The format is functional. As to conditions: MCF7, 96 h.
Assay [6] deals with Histone deacetylase (Homo sapiens) (UniProt Q13547+O15379+Q9UBN7+Q92769+Q9UQL6+Q8WUI4+Q9BY41+Q96DB2+P56524+Q9UKV0+Q969S8). Put plainly: Inhibition of HDAC in human HL60 cells assessed as upregulation of H3 acetylation levels at 2 uM after 18 hrs by SDS-PAGE analysis. The format is cell-based.

As to `CO/N=C(\Cc1ccc(Cl)cc1Cl)C(=O)NCCSSCCNC(=O)/C(Cc1ccc(Cl)cc1Cl)=N/OC`, the concentration for 50% growth inhibition (GI50) was over 50 µM in assay [1], 47.1 µM in assay [2], 8.64 µM in assay [3] and 16.5 µM in assay [5]. Also, in assay [4], the IC50 turned out to be 8.59 µM.
On to `O=C(NCCSSCCNC(=O)/C(Cc1ccc2c(c1)OCO2)=N/O)/C(Cc1ccc2c(c1)OCO2)=N/O`, for which the concentration for 50% growth inhibition (GI50) in assay [1] was found to be 2.4 µM; in assay [2] it was 4.78 µM; in assay [3], 0.67 µM; in assay [5], 3.77 µM. Besides, the concentration for half-maximal inhibition (IC50) in assay [4] amounted to 0.13 µM. Besides, the “H3 acetylation upregulation (active/not active)” value in assay [6] was “Active”.
Turning to `CC(C)c1ccc(C/C(=N\O)C(=O)NCCSSCCNC(=O)/C(Cc2ccc(C(C)C)cc2)=N/O)cc1`, the GI50 in assay [1] came out at 2.67 µM; in assay [2] it was 4.61 µM; in assay [3], 0.5 µM; in assay [5], 3.91 µM. For the same molecule, the IC50 in assay [4] was 0.21 µM.
Take `O=C(NCCSSCCNC(=O)/C(Cc1cccc(Cl)c1)=N/O)/C(Cc1cccc(Cl)c1)=N/O`: the GI50 amounted to 5.19 µM in assay [1], 5.42 µM in assay [2], 0.57 µM in assay [3] and 3.51 µM in assay [5]. Moreover, the IC50 in assay [4] came to 0.21 µM.
Taken in the same sequence, the figures for `O=C(NCCSSCCNC(=O)/C(Cc1ccc(O)cc1)=N/O)/C(Cc1ccc(O)cc1)=N/O` were 5.33 µM, 6.54 µM, 0.62 µM, 4.62 µM and 0.12 µM.
Take `O=C(NCCSSCCNC(=O)/C(Cc1ccc(O)c(Br)c1)=N/O)/C(Cc1ccc(O)c(Br)c1)=N/O` [PSAMMAPLIN A]: the GI50 in assay [1] worked out at 3.52 µM; in assay [2], 4.5 µM; in assay [3], 0.29 µM; in assay [5] it was 2.26 µM. Moreover, the IC50 in assay [4] is 0.05 µM. Also, in assay [6], the “H3 acetylation upregulation (active/not active)” value is “Active”.
On to `CO/N=C(\Cc1cccc(Cl)c1)C(=O)NCCSSCCNC(=O)/C(Cc1cccc(Cl)c1)=N/OC`, for which the GI50 amounted to 23.1 µM in assay [1], 32 µM in assay [2], 6.55 µM in assay [3] and 14.3 µM in assay [5]. Further, in assay [4], the IC50 was found to be 4.5 µM.
For `O=C(NCCSSCCNC(=O)/C(Cc1ccc(Cl)cc1Cl)=N/O)/C(Cc1ccc(Cl)cc1Cl)=N/O` the same measures were 4.61 µM, 6.79 µM, 0.87 µM, 4.98 µM and 0.28 µM.
For the molecule `COc1ccc(-c2cc(C(=O)NCCSSCCNC(=O)c3cc(-c4ccc(OC)c(Br)c4)[nH]n3)n[nH]2)cc1Br`, the GI50 in assay [1] is 16.9 µM; in assay [3], 5.52 µM. Also, the IC50 in assay [4] turned out to be 1.86 µM.
`COc1ccc(C/C(=N\O)C(=O)NCCSSCCNC(=O)/C(Cc2ccc(OC)c(O)c2)=N/O)cc1O`: the GI50 was 3.27 µM in assay [1], 4.74 µM in assay [2], 0.23 µM in assay [3] and 2.7 µM in assay [5]. Further, the half-inhibitory concentration (IC50) in assay [4] stood at 0.03 µM. In addition, in assay [6], the “H3 acetylation upregulation (active/not active)” value is “Active”.
In the case of `O=C(NCCSSCCNC(=O)c1cc(-c2ccc(O)cc2)on1)c1cc(-c2ccc(O)cc2)on1`, the GI50 was found to be 31.7 µM in assay [1] and 11.6 µM in assay [3]. The IC50 in assay [4] turned out to be 3.14 µM.
`COc1ccc(-c2cc(C(=O)NCCSSCCNC(=O)c3cc(-c4ccc(OC)cc4)on3)no2)cc1`: the GI50 was over 50 µM in assay [1] and 18.3 µM in assay [3]. The IC50 in assay [4] is 8.31 µM.
Consider `COc1ccc(C/C(=N\O)C(=O)NCCSSCCNC(=O)/C(Cc2ccc(OC)cc2)=N/O)cc1`, for which the concentration for 50% growth inhibition (GI50) in assay [1] was 5.5 µM; in assay [2], 6.85 µM; in assay [3] it was 0.78 µM; in assay [5], 2.68 µM. The IC50 in assay [4] came out at 0.12 µM.
`COc1ccc(-c2cc(C(=O)NCCSSCCNC(=O)c3cc(-c4ccc(OC)cc4)[nH]n3)n[nH]2)cc1`: the GI50 in assay [1] was determined as 26.6 µM; in assay [3] it was 6.45 µM. Also, the concentration for half-maximal inhibition (IC50) in assay [4] is 2.77 µM.
Taken in the same sequence, the figures for `COc1ccc(-c2cc(C(=O)NCCSSCCNC(=O)c3cc(-c4ccc(OC)c(Br)c4)on3)no2)cc1Br` were 39 µM, 13.3 µM and 4.65 µM.
As for `O=C(NCCSSCCNC(=O)c1cc(-c2ccc(O)c(Br)c2)[nH]n1)c1cc(-c2ccc(O)c(Br)c2)[nH]n1`, the values for the GI50 in assay [1] and in assay [3] were 17.1 µM and 6.14 µM, respectively. The IC50 in assay [4] amounted to 0.68 µM.
As to `COc1cc(C/C(=N\O)C(=O)NCCSSCCNC(=O)/C(Cc2ccc(O)c(OC)c2)=N/O)ccc1O`, the 50% growth inhibitory concentration (GI50) in assay [1] was found to be 3.41 µM; in assay [2] it was 4.84 µM; in assay [3], 0.28 µM; in assay [5] it was 2.47 µM. The IC50 in assay [4] stood at 0.04 µM. In assay [6], the “H3 acetylation upregulation (active/not active)” value is “Active”.
Take `Cc1ccc(C/C(=N\O)C(=O)NCCSSCCNC(=O)/C(Cc2ccc(C)cc2)=N/O)cc1`: the 50% growth inhibitory concentration (GI50) is 6.43 µM in assay [1], 8.35 µM in assay [2], 0.74 µM in assay [3] and 4.3 µM in assay [5]. The IC50 in assay [4] was found to be 0.26 µM. The “H3 acetylation upregulation (active/not active)” value in assay [6] is “Active”.
In the case of `CO/N=C(\Cc1ccc(OC)cc1)C(=O)NCCSSCCNC(=O)/C(Cc1ccc(OC)cc1)=N/OC`, the GI50 in assay [1] was 26.8 µM; in assay [2], 38.3 µM; in assay [3], 5.18 µM; in assay [5] it was 16.4 µM. Besides, the IC50 in assay [4] stood at 3.15 µM.
For `O=C(NCCSSCCNC(=O)c1cc(-c2ccc(O)cc2)[nH]n1)c1cc(-c2ccc(O)cc2)[nH]n1`, the figures for the GI50 in assay [1] and in assay [3] were 19.8 µM and 4.11 µM, respectively. Moreover, in assay [4], the IC50 is 1.81 µM.
As for `O=C(NCCSSCCNC(=O)/C(Cc1cccc(C(F)(F)F)c1)=N/O)/C(Cc1cccc(C(F)(F)F)c1)=N/O`, the GI50 was found to be 6.78 µM in assay [1], 4.48 µM in assay [2], 0.52 µM in assay [3] and 3.48 µM in assay [5]. Also, in assay [4], the IC50 was 0.27 µM.
Consider `CO/N=C(\Cc1ccc(C)cc1)C(=O)NCCSSCCNC(=O)/C(Cc1ccc(C)cc1)=N/OC`, for which the GI50 in assay [1] was over 50 µM; in assay [2], over 50 µM; in assay [3] it was 11.9 µM; in assay [5] it was over 50 µM. Moreover, the half-maximal inhibitory concentration (IC50) in assay [4] is 7.65 µM. In assay [6], the “H3 acetylation upregulation (active/not active)” value was “inactive”.
